For the experiment, the system named is ALMAN (Allium cepa α-mannosidase). Description: p-nitrophenol release, absorption at […] nm. It counts as biochemical. As to conditions: 20 mM sodium acetate pH 4.0, 40 °C (standard assay).

Structures are written as SMILES.

Among the data in paper PMC11116084 (Journal of Applied Glycoscience, 2024) are Km values, retold here.

`O=[N+]([O-])c1ccc(O[C@H]2O[C@H](CO)[C@@H](O)[C@H](O)[C@@H]2O)cc1` [pNP-α-Man]: the Michaelis-Menten constant (Km) is 1690 µM.
